Results published in patent US7329666B2, “Derivatives of variolin B” (Pharma Mar, S.A., priority 2000, dated 2008).

Legend:
A-549 = test: cytotoxicity against A-549; type: cell-based; conditions: Homo sapiens, A549
Description: (§1) The cytotoxicity of the compounds of scheme 4 of this invention is illustrated by the following IC50 μM data: […]

P-388 = test: cytotoxicity against P-388; type: cell-based; conditions: Mus musculus, P388
Description: as §1

HT-29 = test: cytotoxicity against HT-29; type: cell-based; conditions: Homo sapiens
Description: as §1

Sacharomyces cerevisiae = conditions: cited from earlier work
HCT 116 cell line = conditions: cited from earlier work
P388 cell line = conditions: Tetrahedron 1994, 50, 3987-3992; cited from earlier work
[1] = cited from earlier work
Herpes simplex = conditions: cited from earlier work
other microorganisms = conditions: cited from earlier work

| SMILES | IC50 (A-549) [nM] | IC50 (P-388) [nM] | IC50 (HT-29) [nM] | further results |
| --- | --- | --- | --- | --- |
| Nc1nccc(-c2c3cccnc3n3c(N)nccc23)n1 [Compound 5, 9-Amino-5-(2-aminopyrimidin-4-yl)pyrido[3′,2′:4,5]pyrrolo[1,2-c]-pyrimidine] | 40 | 360 | 40 |  |
| CSc1nccc(-c2c3cccnc3n3c(NC(C)=O)nccc23)n1 [Compound 20a, 9-Acetylamino-5-(2-methanesulfanylpyrimidin-4-yl)pyrido[3′,2′:4,5]-pyrrolo-[1,2-c]pyrimidine] | 290 | > 3000 | 290 |  |
| CSc1nccc(-c2c3cccnc3n3c(N)nccc23)n1 [Compound 21, 9-Amino-5-(2-methanesulfanylpyrimidin-4-yl)pyrido[3′,2′:4,5]pyrrolo[1,2-c]pyrimidine] | 160 | > 3000 | 160 |  |
| CN1C(N)=NCCC1c1c2c(O)ccnc2n2c(N)nccc12 (stereo not shown) [N(3′)-methyltetrahydrovariolin B, N (3′)-methyl tetrahydrovariolin B] |  |  |  | growth of Sacharomyces cerevisiae (Sacharomyces cerevisiae): inhibited the growth; in vitro activity against the HCT 116 cell line (HCT 116 cell line): in vitro activity |
| C[n+]1c([O-])cc(-c2c3c(O)ccnc3n3c(N)nccc23)nc1N [Variolin A] |  |  |  | cytotoxic activity against the P388 cell line (P388 cell line): important cytotoxic activity |
| COC(=O)c1c2c(O)ccnc2n2c(N)nccc12 [Variolin D, variolin D] |  |  |  | activity in all the assays [1]: inactive |
| Nc1nccc(-c2c3c(O)ccnc3n3c(N)nccc23)n1 [variolin B] | 170 | 850 | 90 | effectiveness against Herpes simplex (Herpes simplex): effective; cytotoxic activity against the P388 cell line (P388 cell line): cytotoxic activity; activity against a range of other microorganisms (other microorganisms): inactive |
